# Literature values as cited in US6780852B2 (priority 1997, dated 2004).
substance,measurement,value
Ferric gluconate,"transient hypotension and flushing, share of exposed patients",1%
